Values joined by “and” are separate entries in the source; they are usually repeats but may differ in a detail not shown here. Equal entries are not always repeated. Inconclusive results and toxic doses are left out.
Test system: L1210 leukemia ip in BDF1 mice, survival T/C
Assay: NCI In Vivo Anticancer Drug Screen. Data for tumor model L1210 Leukemia (intraperitoneal) in B6D2F1 (BDF1) mice
Conditions: endpoint: mean survival time, higher = longer survival
Outline: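 Tumor cells were implanted, animals were treated, and survival was followed. The result divides the treated measurement by the vehicle-control measurement.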

[1] = dose: 100.0 mg/kg/injection, schedule: Q04DX003 (ip), vehicle: Klucel (hydroxypropylcellulose) (HPC)
[2] = dose: 200.0 mg/kg/injection, schedule: Q04DX003 (ip), vehicle: Klucel (hydroxypropylcellulose) (HPC)
[3] = dose: 400.0 mg/kg/injection, schedule: Q04DX003 (ip), vehicle: Klucel (hydroxypropylcellulose) (HPC)
[4] = dose: 100.0 mg/kg/injection, schedule: Q01DX001 (ip), vehicle: saline
[5] = dose: 200.0 mg/kg/injection, schedule: Q01DX001 (ip), vehicle: saline
[6] = dose: 400.0 mg/kg/injection, schedule: Q01DX001 (ip), vehicle: saline
[7] = dose: 100.0 mg/kg/injection, schedule: Q04DX003 (ip), vehicle: saline with Tween-80
[8] = dose: 200.0 mg/kg/injection, schedule: Q04DX003 (ip), vehicle: saline with Tween-80

N/C(N=Nc1ccccc1)=N\[N+](=O)[O-]
T/C [1]: 100 % of control | T/C [2]: 105 % of control | T/C [3]: 86 % of control

CCOC(=O)[C@H]1CCC[C@@H](NC(=O)N(CCCl)N=O)C1
T/C (dose: 5.0 mg/kg/injection, schedule: Q01DX001 (ip), vehicle: other): 108 % of control | T/C (dose: 10.0 mg/kg/injection, schedule: Q01DX001 (ip), vehicle: other): 123 % of control | T/C (dose: 20.0 mg/kg/injection, schedule: Q01DX001 (ip), vehicle: other): 194 % of control | T/C (dose: 31.0 mg/kg/injection, schedule: Q01DX001 (ip), vehicle: other): 329 % of control | T/C (dose: 40.0 mg/kg/injection, schedule: Q01DX001 (ip), vehicle: other): 305 % of control | T/C (dose: 62.0 mg/kg/injection, schedule: Q01DX001 (ip), vehicle: other): 254 % of control

CCC1CN1P1(=O)OCC(C)(C(=O)OC)CO1 (configuration not stated)
T/C [4]: 101 % of control | T/C [5]: 108 % of control | T/C [6]: 101 % of control

CC(C#N)CC12CCCCC1CC/C(=C\c1ccccc1)C2=O (configuration not stated)
T/C [1]: 102 % of control | T/C [2]: 96 % of control | T/C [3]: 96 % of control

C#CCN(CC#C)CC#C
T/C (dose: 25.0 mg/kg/injection, schedule: Q04DX003 (ip), vehicle: saline): 103 % of control | T/C (dose: 50.0 mg/kg/injection, schedule: Q04DX003 (ip), vehicle: saline): 94 % of control

CC(=O)c1cc(C)c(C)c(C)c1
T/C [4]: 96 % of control | T/C [5]: 96 % of control | T/C [6]: 91 % of control

Clc1ccc(NC(Nc2ccc(Cl)c(Cl)c2)C(Cl)(Cl)Cl)cc1Cl
T/C [7]: 101 % of control | T/C [8]: 90 % of control

[NH-]C(CC(N)=O)C(=O)O.[NH-]C(CC(N)=O)C(=O)O.[Zn+2] (configuration not stated)
T/C (dose: 25.0 mg/kg/injection, schedule: Q04DX002 (ip), vehicle: saline): 92 % of control | T/C (dose: 50.0 mg/kg/injection, schedule: Q04DX002 (ip), vehicle: saline): 116 % of control

CC1(c2ccccc2)OCC(CCl)O1 (configuration not stated)
T/C (dose: 222.0 mg/kg/injection, schedule: Q01DX Z (ip), vehicle: saline): 95 % of control | T/C (dose: 333.0 mg/kg/injection, schedule: Q01DX Z (ip), vehicle: saline): 95 % of control | T/C (dose: 500.0 mg/kg/injection, schedule: Q01DX Z (ip), vehicle: saline): 91 % of control

CN(C)c1ccc(O)c2c1CC1CC3C(N(C)C)C(=O)C(C(N)=O)=C(O)C3(O)C(=O)C1=C2O (configuration not stated)
T/C [7]: 100 % of control | T/C [8]: 108 % of control

CSc1cc2c(cc1NC(C)=O)Cc1cc(F)ccc1-2
T/C (dose: 100.0 mg/kg/injection, schedule: Q01DX001 (ip), vehicle: carboxymethylcellulose (CMC)): 98 % of control | T/C (dose: 200.0 mg/kg/injection, schedule: Q01DX001 (ip), vehicle: carboxymethylcellulose (CMC)): 101 % of control | T/C (dose: 400.0 mg/kg/injection, schedule: Q01DX001 (ip), vehicle: carboxymethylcellulose (CMC)): 95 % of control

CN(C)CCCCNc1ccc(NCCCCN(C)C)c2c1C(=O)c1c(O)ccc(O)c1C2=O
T/C (dose: 100.0 mg/kg/injection, schedule: Q04DX002 (ip), vehicle: saline): 99 % of control | T/C (dose: 200.0 mg/kg/injection, schedule: Q04DX002 (ip), vehicle: saline): 105 % of control

c1ccc(N=NC2(c3ccccc3)CCC(c3ccccc3)=NN2c2ccccc2)cc1 (configuration not stated)
T/C [7]: 100 % of control | T/C [8]: 89 % of control | T/C (dose: 400.0 mg/kg/injection, schedule: Q04DX003 (ip), vehicle: saline with Tween-80): 93 % of control

Clc1ccc(/C(=[C](\[Hg]/[C](=C(\c2ccccc2)c2ccc(Cl)cc2)c2ccccc2)c2ccccc2)c2ccccc2)cc1
T/C (dose: 100.0 mg/kg/injection, schedule: Q01DX009 (ip), vehicle: Klucel (hydroxypropylcellulose) (HPC)): 96 % of control | T/C [1]: 101 % of control | T/C (dose: 200.0 mg/kg/injection, schedule: Q01DX009 (ip), vehicle: Klucel (hydroxypropylcellulose) (HPC)): 102 % of control | T/C [2]: 107 % of control | T/C (dose: 400.0 mg/kg/injection, schedule: Q01DX009 (ip), vehicle: Klucel (hydroxypropylcellulose) (HPC)): 96 % of control | T/C [3]: 102 % of control

COC(=O)c1cncn1C(C)c1cccc2ccccc12 (configuration not stated)
T/C (dose: 25.0 mg/kg/injection, schedule: Q04DX003 (ip), vehicle: Klucel (hydroxypropylcellulose) (HPC)): 96 % of control | T/C (dose: 50.0 mg/kg/injection, schedule: Q04DX003 (ip), vehicle: Klucel (hydroxypropylcellulose) (HPC)): 102 % of control | T/C [1]: 101 % of control and 103 % of control

CC(C)(C(=O)Oc1ccccc1)C(=O)Oc1ccccc1
T/C (dose: 50.0 mg/kg/injection, schedule: Q01DX009 (ip), vehicle: saline with Tween-80): 95 % of control | T/C (dose: 100.0 mg/kg/injection, schedule: Q01DX009 (ip), vehicle: saline with Tween-80): 100 % of control | T/C (dose: 200.0 mg/kg/injection, schedule: Q01DX009 (ip), vehicle: saline with Tween-80): 88 % of control

O=[N+]([O-])c1ccc(Sc2ccsc2)c([N+](=O)[O-])c1
T/C [4]: 101 % of control | T/C [5]: 98 % of control

CC1CC2=C(CCCO2)C(C)C1 (configuration not stated)
T/C [5]: 95 % of control

— PubChem BioAssay AID248 (DTP/NCI, 2004)
